Test results published in patent US20060222792A1, “Temozolomide storage system” (CHEMAGIS LTD., priority 2006, published 2006).

Legend:
Assay type in all cases: physicochemical
[1] = Storage stability of temozolomide in type 3 packaging, purity by HPLC (Example 3); settings: for Initial purity, % by HPLC: before starting the storage period; for Initial purity, % by HPLC / Purity, % by HPLC after 1 month of storage / Purity, % by HPLC after 2 months of storage / Purity, % by HPLC after 6 month of storage: % area; for Purity, % by HPLC after 1 month of storage / Purity, % by HPLC after 2 months of storage / Purity, % by HPLC after 6 month of storage: warehouse conditions; for Purity, % by HPLC after 6 month of storage: 6 months
Protocol: Analytical measurements of the temozolomide samples were performed using an HPLC system equipped with Phenomenex Synergi™ Fusion-RP C18 column, 250×4.6 mm, and a UV detector operated on 250 nm. Analyses were performed using the following mobile phase, at flow rate of 1.0 ml/minute: Mobile phase: 90% Solution A: 0.02M potassium dihydrogen phosphate buffer (pH 3); 10% Solution B: acetonitrile.
Three different samples of temozolomide were stored at warehouse conditions in a type 3 packaging. A small quantity was taken from each sample after 1, 2 and 6 months and the purity was checked by HPLC and compared to the original HPLC chromatogram of each sample (before starting the storage period). The purity of each sample was obtained as % area by the HPLC chromatogram and compared to the initial purity value (before starting the storage period).

[2] = Colour stability of temozolomide in different drug packaging at warehouse conditions (Example 2)
From the text: Exemplary packaging, which can be used in the storage system of the present invention, can include, e.g., packaging type 1, packaging type 2 and/or packaging type 3. When packaging type 1 is used, the temozolomide is preferably contained (e.g., packed or packaged) in a sealed transparent polymeric bag (e.g., a sealed polyethylene bag). When packaging type 2 is used, the temozolomide is preferably contained (e.g., packed or packaged) in a sealed transparent polymeric bag (e.g., a sealed polyethylene bag), which is inserted into another opaque (e.g., black) polymeric bag (e.g., a black polyethylene bag), which is then sealed effectively to prevent penetration of humidity, oxygen and/or light. When packaging type 3 is used, the temozolomide is preferably contained (e.g., packaged or packed) in a sealed transparent polymeric bag (e.g., a sealed polyethylene bag), which is inserted in an opaque (e.g., black) polymeric bag (e.g., a black polyethylene bag), which is then sealed and, in turn, put inside a sealed laminated aluminum bag, which is then sealed. For packaging type 2 and packaging type 3, a desiccant can be interposed (e.g., dispersed) between the two plastic layers (e.g., between the transparent and opaque polymeric bags).
Exemplary packaging for the storage system of the present invention can include packaging type 1, wherein temozolomide is packed and sealed in a transparent polyethylene bag. Exemplary packaging for the storage system of the present invention also can include packaging type 2, wherein temozolomide is packed and sealed in a transparent polyethylene bag, which is inserted into an opaque (e.g., black) polyethylene bag, which is then sealed, wherein the packaging is sealed effectively to prevent penetration of humidity and/or oxygen. Exemplary packaging for the storage system of the present invention also can include packaging type 3, wherein temozolomide is packed and sealed in a transparent polyethylene bag, which is packed in an opaque (e.g., black) polyethylene bag, which is then sealed and, in turn, packed and sealed in a laminated aluminum bag, which is then sealed. In packaging type 2 and in packaging type 3, a desiccant optionally can be interposed (e.g., dispersed) between the two polymeric bags/layers. In accordance with the present invention, each packaging, e.g., packaging type 1, type 2, and/or type 3 as described herein, can be packed under an inert atmosphere (e.g., under a nitrogen atmosphere) or in ambient air. In a preferred embodiment, the storage system of the present invention includes a type 3 packaging with a silica gel desiccant, wherein the packaging is optionally packed and sealed under a nitrogen atmosphere. An exemplary type 3 packaging is described in Example 2, which describes a type 3 packaging containing a silica gel desiccant, optionally under nitrogen atmosphere, which is effective in maintaining the temozolomide white color for long storage periods. […]

[3] = Effect of relative humidity on temozolomide stability, visual colour test in open glass vessel (Example 4)
Protocol: Three samples of temozolomide were stored in an open glass vessel at different relative humidity (RH) conditions for storage periods of up to 3 weeks, after which time the color changes were evaluated.

Row | Initial purity, % by HPLC [1] | Purity, % by HPLC after 1 month of storage ([1]; type 3 packaging) | Purity, % by HPLC after 2 months of storage ([1]; type 3 packaging) | Purity, % by HPLC after 6 month of storage ([1]; type 3 packaging) | Color ([2]; Type 1 at ambient air, storage period 6 weeks, warehouse conditions, initially white) | Color ([2]; Type 3 - the inner bag of entry 2 was left out (sealed) for two more weeks, 6 weeks) | Color ([2]; Type 3 at ambient air containing a desiccant in the inner packaging, 4 weeks, warehouse conditions) | Color ([2]; Type 3 at ambient air containing a desiccant in the inner packaging, 10 weeks, warehouse conditions) | Color ([2]; Type 3 under nitrogen containing a desiccant in the inner packaging, 6 weeks, warehouse conditions) | Color ([2]; Type 3 under nitrogen without desiccant in the inner packaging, 8 weeks, warehouse conditions) | Result of visual test ([3]; RH 20%, 3 weeks) | Result of visual test ([3]; RH 80%, 4 days) | Structure (SMILES) | Rate of decomposition on storage ([1]; type 3 packaging, wet sample (water about 1.8%) vs dry samples 3417 and 3034 (water less than 0.1%, KF))
1 | 97.9% | 97.3% | 97.3% | 96.2% |  |  |  |  |  |  |  |  | Cn1nnc2c(C(N)=O)ncn2c1=O [Sample 519, temozolomide] | appeared to decompose at a faster rate than the dry samples
2 | 99.8% | 99.7% | 99.8% | 99.8% |  |  |  |  |  |  |  |  | Cn1nnc2c(C(N)=O)ncn2c1=O [Sample 3034, temozolomide] | 
3 | 99.7% | 99.8% | 99.9% | 99.7% |  |  |  |  |  |  |  |  | Cn1nnc2c(C(N)=O)ncn2c1=O [Sample 3417, temozolomide] | 
4 |  |  |  |  | pinkish | pinkish | white | white | white | pinkish | White | pink color | Cn1nnc2c(C(N)=O)ncn2c1=O [temozolomide, 8-carbamoyl-3-methyl-imidazo[5,1-d]-1,2,3,5-tetrazin-4(3H)-one] | 
